Reference: paper PMC3923778 (PLoS Currents, 2014)
Entries after “also recorded” stand apart in the source; their conditions may differ.

Assays:
R6/2 mice [1] = assay: Grip Strength; type: in vivo, mouse; parameters: key to Grip Strength: direction of significant change vs Vehicle-treated R6/2 mice: ▲: significant enhancement compared to Vehicle-treated R6/2 mice (One-way ANOVA, Dunnett’s post-hoc); ▼: significant impairment compared to Vehicle-treated R6/2 mice (One-way ANOVA, Dunnett’s post-hoc)
Experimental: Motor function testing including open field and rear climbing tests were commenced at 4 weeks of age and continued at weeks 6, 8 and 12, for grip strength test at age weeks 4 and 12 and for rotarod at age weeks 4, 6 and 8. Compound treatment was started at 4 weeks of age after the baseline behavioral tests.
Grip strength measurement was performed at age weeks 4 and 12. The mice were tested on Monday afternoons. Mice were taken to the experimental room and, one at a time, were placed on the grip-strength apparatus (San Diego Instruments, San Diego, USA) in such a way that the animal grabs a small mesh grip with its forepaws. The entire apparatus is placed on a table top for testing. Animals are lowered to the platform and then slowly pulled away from the handle by the tail until the animal releases the handle. The equipment automatically measures the strength of the animal’s grip in grams. Five scores were recorded per animal in consecutive sequence. Mice were returned to their home cage after testing.
(§1) All values are presented as mean ± Standard Error of Mean (SEM), and differences are considered to be statistically significant at the p < 0.05 level. Statistical analysis was performed using StatsDirect statistical software. Differences between group means were analyzed by 1-way-ANOVA followed by Dunnett’s test (comparison to the control (=vehicle treated TG mice) group). The acquisition of the Cued two-choice swim test was analyzed using Fisher’s exact test.

PDE2A3 = biological target: T1, PDE2A3 (Homo sapiens, UniProt O00408); assay: IMAP PDE activity assay (Scottish Biomedical); type: biochemical; conditions: recombinant PDE2A3
T1 construct: Scottish Biomedical (contract laboratory)
Experimental: (§2) Studies were conducted at Scottish Biomedical (Scotland, UK)
(§3) Activity against recombinant PDEs (Table 1) was evaluated using the IMAP technology, which is based on high affinity binding of phosphate by immobilized metal coordination complexes on nanoparticles. The binding reagent complexes with phosphate groups on nucleotide monophosphate generated from cyclic nucleotides (cAMP/cGMP) through PDE activity. With fluorescence polarization detection, binding causes a change in the rate of the molecular motion of the phosphate bearing molecule, and results in an increase in the fluorescence polarization value observed for the fluorescent label attached to the substrate.

PDE4 Cat = assay: IMAP PDE activity assay (Scottish Biomedical); type: biochemical
Experimental: as §2, §3

PDE3 Cat = assay: IMAP PDE activity assay (Scottish Biomedical); type: biochemical; conditions: * Extrapolated value
Experimental: as §2, §3

PDE6AB = biological target: T2, PDE6AB (Homo sapiens, UniProt P16499+P35913); assay: IMAP PDE activity assay (Scottish Biomedical); type: biochemical; conditions: NI, no inhibition noted at concentrations tested (up to 10 µM at Cerep and up to 100 µM at Scottish Biomedical)
T2 construct: Scottish Biomedical (contract laboratory)
T2 sequence (P16499 whole entry): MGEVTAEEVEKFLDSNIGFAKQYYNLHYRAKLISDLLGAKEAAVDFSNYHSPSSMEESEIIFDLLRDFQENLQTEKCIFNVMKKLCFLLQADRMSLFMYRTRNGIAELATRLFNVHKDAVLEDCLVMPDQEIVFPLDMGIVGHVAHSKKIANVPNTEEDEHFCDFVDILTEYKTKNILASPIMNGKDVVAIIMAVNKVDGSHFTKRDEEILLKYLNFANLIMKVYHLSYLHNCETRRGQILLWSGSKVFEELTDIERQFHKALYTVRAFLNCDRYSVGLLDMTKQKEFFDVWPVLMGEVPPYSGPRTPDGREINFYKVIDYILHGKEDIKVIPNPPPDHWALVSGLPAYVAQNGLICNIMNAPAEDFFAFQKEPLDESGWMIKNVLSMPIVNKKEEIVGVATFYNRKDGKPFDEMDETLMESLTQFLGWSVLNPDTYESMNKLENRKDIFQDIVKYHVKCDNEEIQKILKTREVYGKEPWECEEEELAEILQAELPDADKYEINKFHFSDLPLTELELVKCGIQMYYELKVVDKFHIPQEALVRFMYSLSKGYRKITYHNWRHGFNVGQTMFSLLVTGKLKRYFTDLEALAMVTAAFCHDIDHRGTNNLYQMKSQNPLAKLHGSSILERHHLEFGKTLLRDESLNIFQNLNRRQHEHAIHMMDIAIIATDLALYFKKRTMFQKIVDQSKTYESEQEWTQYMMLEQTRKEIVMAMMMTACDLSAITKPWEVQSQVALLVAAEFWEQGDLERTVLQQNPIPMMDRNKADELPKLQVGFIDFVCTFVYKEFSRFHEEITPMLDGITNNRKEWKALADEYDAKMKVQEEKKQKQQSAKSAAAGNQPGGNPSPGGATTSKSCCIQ
T2 sequence (P35913 whole entry): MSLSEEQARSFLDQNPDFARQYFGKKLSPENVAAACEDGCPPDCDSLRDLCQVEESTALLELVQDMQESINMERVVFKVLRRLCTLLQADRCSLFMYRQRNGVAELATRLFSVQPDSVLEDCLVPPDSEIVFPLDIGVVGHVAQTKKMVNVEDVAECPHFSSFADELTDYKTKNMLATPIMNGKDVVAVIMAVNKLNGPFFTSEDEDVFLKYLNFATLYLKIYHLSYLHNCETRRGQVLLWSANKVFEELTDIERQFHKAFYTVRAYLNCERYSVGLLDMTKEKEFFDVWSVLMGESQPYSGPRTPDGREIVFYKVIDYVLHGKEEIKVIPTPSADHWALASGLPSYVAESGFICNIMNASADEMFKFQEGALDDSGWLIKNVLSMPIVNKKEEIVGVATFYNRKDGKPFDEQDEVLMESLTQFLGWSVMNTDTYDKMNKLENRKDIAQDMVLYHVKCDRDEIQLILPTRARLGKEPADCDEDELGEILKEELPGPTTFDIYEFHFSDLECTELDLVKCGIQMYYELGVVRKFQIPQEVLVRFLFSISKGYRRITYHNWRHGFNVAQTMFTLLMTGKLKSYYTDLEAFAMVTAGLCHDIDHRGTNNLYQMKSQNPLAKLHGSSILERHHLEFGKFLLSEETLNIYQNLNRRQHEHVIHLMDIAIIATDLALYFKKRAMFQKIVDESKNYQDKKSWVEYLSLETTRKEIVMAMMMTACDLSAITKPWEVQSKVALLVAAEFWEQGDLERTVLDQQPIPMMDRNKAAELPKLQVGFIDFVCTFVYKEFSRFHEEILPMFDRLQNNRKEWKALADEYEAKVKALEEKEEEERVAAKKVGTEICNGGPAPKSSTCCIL
Experimental: as §2, §3

PDE7A1 = biological target: T3, PDE7A1 (Homo sapiens, UniProt Q13946); assay: IMAP PDE activity assay (Scottish Biomedical); type: biochemical
T3 construct: Scottish Biomedical (contract laboratory)
T3 sequence (Q13946 whole entry, species assumed): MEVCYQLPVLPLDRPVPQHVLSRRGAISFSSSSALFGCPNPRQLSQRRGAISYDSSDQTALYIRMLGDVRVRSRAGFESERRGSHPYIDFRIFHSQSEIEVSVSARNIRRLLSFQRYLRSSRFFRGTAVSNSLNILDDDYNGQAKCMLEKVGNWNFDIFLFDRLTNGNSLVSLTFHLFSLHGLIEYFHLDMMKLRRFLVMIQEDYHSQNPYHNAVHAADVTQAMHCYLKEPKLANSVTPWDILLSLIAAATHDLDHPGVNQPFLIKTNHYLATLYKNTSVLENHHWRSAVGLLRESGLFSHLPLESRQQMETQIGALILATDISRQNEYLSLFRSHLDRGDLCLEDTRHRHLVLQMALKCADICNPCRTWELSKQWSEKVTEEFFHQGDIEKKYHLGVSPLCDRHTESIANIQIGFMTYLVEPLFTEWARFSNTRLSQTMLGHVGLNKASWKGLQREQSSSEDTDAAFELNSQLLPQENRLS
Experimental: as §2, §3

PDE11A1 (cAMP) = PDE11A1 (cAMP) (Homo sapiens, UniProt Q9HCR9); assay: IMAP PDE activity assay (Scottish Biomedical); type: biochemical; conditions: * Extrapolated value
Experimental: as §2, §3

PDE1A3 (cAMP) = biological target: T4, PDE1A3 (cAMP) (Homo sapiens, UniProt P54750); assay: IMAP PDE activity assay (Scottish Biomedical); type: biochemical; conditions: recombinant PDE1A3 (cAMP)
T4 construct: Scottish Biomedical (contract laboratory)
T4 sequence (P54750 whole entry, species assumed): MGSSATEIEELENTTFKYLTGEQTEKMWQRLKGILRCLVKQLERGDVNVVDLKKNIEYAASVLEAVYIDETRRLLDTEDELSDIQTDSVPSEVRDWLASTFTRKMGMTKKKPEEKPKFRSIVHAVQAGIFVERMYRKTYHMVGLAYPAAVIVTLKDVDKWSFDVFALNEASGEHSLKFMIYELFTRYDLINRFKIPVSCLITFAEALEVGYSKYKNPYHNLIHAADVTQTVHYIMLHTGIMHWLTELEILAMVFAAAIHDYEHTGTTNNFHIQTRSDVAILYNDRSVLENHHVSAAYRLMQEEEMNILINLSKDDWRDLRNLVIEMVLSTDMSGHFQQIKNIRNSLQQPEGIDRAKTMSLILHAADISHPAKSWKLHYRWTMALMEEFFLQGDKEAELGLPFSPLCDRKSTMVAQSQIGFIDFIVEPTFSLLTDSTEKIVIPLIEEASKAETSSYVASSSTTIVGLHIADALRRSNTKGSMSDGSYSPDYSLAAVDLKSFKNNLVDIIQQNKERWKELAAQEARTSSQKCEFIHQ
Experimental: as §2, §3

PDE10A1 (cAMP) = PDE10A1 (cAMP) (Homo sapiens, UniProt Q9Y233); assay: IMAP PDE activity assay (Scottish Biomedical); type: biochemical; conditions: * Extrapolated value
Sequence of PDE10A1 (cAMP) (Q9Y233 267-1055): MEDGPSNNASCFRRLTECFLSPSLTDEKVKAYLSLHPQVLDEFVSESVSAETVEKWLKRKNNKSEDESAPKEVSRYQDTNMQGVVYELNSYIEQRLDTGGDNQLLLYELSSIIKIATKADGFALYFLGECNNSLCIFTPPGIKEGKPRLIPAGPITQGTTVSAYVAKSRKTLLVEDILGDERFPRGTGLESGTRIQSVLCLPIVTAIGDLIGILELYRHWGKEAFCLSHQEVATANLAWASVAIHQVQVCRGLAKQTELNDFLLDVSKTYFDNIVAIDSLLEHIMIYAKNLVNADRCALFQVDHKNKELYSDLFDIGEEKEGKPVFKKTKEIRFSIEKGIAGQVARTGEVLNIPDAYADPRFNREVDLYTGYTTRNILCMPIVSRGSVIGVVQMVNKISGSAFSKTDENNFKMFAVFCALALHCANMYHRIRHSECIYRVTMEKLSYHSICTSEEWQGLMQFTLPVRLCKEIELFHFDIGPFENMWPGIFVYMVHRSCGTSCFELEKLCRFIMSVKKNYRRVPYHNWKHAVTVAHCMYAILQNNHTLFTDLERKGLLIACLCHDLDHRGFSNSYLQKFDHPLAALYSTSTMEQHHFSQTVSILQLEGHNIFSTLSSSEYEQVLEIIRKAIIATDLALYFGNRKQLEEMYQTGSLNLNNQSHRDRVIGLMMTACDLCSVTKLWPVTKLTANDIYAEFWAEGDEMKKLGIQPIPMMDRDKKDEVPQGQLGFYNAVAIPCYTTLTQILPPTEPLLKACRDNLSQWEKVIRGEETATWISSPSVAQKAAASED
Experimental: as §2, §3

PDE9A2 = PDE9A2 (Homo sapiens, UniProt O76083); assay: IMAP PDE activity assay (Scottish Biomedical); type: biochemical; conditions: * Extrapolated value
Sequence of PDE9A2 (O76083 whole entry): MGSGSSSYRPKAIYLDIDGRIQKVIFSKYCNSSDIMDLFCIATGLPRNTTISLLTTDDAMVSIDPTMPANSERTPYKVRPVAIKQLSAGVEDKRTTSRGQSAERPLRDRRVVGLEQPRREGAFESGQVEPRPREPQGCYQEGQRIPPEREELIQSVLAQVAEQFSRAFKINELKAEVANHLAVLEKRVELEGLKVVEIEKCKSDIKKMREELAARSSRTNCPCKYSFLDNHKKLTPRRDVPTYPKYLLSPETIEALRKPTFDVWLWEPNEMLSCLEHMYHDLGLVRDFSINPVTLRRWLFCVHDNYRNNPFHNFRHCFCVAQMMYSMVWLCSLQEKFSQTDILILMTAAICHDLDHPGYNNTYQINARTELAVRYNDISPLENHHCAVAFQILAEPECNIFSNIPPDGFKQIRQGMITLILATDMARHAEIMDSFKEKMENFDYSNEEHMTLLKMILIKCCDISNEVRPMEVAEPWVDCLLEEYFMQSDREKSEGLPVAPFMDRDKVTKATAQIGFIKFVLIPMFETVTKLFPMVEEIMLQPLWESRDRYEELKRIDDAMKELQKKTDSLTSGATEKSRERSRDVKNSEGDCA
Experimental: as §2, §3

PDE8A1 = biological target: T5, PDE8A1 (Homo sapiens, UniProt O60658); assay: IMAP PDE activity assay (Scottish Biomedical); type: biochemical; conditions: NI, no inhibition noted at concentrations tested (up to 10 µM at Cerep and up to 100 µM at Scottish Biomedical)
T5 construct: Scottish Biomedical (contract laboratory)
Experimental: as §2, §3

[2] = Body weight during chronic dosing in R6/2 mice; type: in vivo, mouse; conditions: BID, ANOVA
Experimental: Body weight was measured starting at the age of 4 weeks and a further two times per week on the same day until the end of the study. This was done just prior to animals receiving doses for those days.
as §1

PDE1 = test system: PDE1; parameters: method as in PMID 9216839, PMID 17697115, PMID 8961086, PMID 7581878; conditions: ref [12], [23], [27], [28], read-out: reported IC50; cited from earlier work
PDE1B = biological target: T6, PDE1B (Homo sapiens, UniProt Q01064); assay: Cerep diversity panel screen at 10 µM; type: biochemical
T6 construct: Cerep (contract laboratory)
Experimental: (§4) Studies were conducted at Cerep (France)

PDE2A = biological target: T7, PDE2A (Homo sapiens, UniProt O00408); assay: Cerep diversity panel screen at 10 µM; type: biochemical
T7 construct: Cerep (contract laboratory)
T7 sequence (O00408 whole entry, species assumed): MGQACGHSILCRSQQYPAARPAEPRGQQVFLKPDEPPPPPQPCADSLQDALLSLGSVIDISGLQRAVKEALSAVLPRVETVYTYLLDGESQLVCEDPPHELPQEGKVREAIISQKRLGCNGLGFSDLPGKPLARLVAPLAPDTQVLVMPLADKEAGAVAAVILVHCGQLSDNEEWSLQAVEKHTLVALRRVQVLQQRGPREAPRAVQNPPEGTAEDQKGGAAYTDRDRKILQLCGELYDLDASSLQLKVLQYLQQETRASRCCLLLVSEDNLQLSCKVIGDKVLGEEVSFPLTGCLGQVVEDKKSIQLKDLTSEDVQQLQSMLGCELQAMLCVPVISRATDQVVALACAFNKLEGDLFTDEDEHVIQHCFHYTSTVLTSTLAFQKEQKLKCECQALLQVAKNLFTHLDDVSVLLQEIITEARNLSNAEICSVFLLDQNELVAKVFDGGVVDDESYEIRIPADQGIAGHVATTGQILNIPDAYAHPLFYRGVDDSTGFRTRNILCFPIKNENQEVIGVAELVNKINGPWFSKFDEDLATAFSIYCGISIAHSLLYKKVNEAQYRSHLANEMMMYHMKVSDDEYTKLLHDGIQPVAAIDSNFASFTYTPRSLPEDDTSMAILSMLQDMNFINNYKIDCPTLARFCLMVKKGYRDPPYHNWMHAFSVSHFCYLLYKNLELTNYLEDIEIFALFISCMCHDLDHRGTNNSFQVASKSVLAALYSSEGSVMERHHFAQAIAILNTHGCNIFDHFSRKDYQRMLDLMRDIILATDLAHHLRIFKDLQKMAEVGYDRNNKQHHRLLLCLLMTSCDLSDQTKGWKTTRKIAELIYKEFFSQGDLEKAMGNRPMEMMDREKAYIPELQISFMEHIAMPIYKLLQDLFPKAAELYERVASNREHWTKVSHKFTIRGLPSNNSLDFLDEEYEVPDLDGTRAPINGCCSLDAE
Experimental: as §4

R6/2 mice [3] = assay: Lower dose behavioral efficacy study in R6/2 mice (Psychogenic); type: in vivo, mouse; conditions: lower doses, 0.3 – 3 mg/kg
[4] = Age Week 12, 30 mg/kg p.o., BID

CN1C(=O)c2nc(Cc3ccc(C(F)(F)F)cc3)[nH]c2N2C1=N[C@H]1CCC[C@H]12 [SCH-51866, (+)-cis-5,6a,7,8,9,9a-hexahydro-2-[4-[trifluro-methyl]phenylmethyl]-5-methyl-cylopent[4,5]imidazo [2,1-b]purin-4(3H)one]
Grip strength, effect in words (R6/2 mice [1]; 30 mg/kg, 12 weeks of age, vs R6/2 vehicle group): improvement in grip strength; also recorded: positive effect in improving grip strength; also recorded: significantly improved over the R6/2 vehicle group
Grip Strength: p vs Vehicle-treated R6/2 mice (R6/2 mice [1]; Age Week 4, 10 mg/kg p.o., BID, ANOVA): ANOVA: p=0.612
Grip Strength: p vs Vehicle-treated R6/2 mice (R6/2 mice [1]; Age Week 4, 30 mg/kg p.o., BID, ANOVA): ANOVA: p=0.612
Grip Strength: p vs Vehicle-treated R6/2 mice (R6/2 mice [1]; Age Week 12, 10 mg/kg p.o., BID): p=0.860
Grip Strength: direction of significant change vs Vehicle-treated R6/2 mice (R6/2 mice [1]; [4]): ▲
Grip Strength: p vs Vehicle-treated R6/2 mice (R6/2 mice [1]; [4]): 0.006
IC50 (PDE2A3): 1.32 µM
IC50 (PDE4 Cat): > 100 µM
IC50 (PDE3 Cat): 17.3 µM
IC50 (PDE6AB): > 100 µM
IC50 (PDE7A1): > 100 µM
IC50 (PDE11A1 (cAMP)): 21.9 µM
IC50 (PDE1A3 (cAMP)): 0.07 µM
IC50 (PDE10A1 (cAMP)): 16 µM
IC50 (PDE9A2): 51.3 µM
IC50 (PDE8A1): > 100 µM
Body Weight: p vs Vehicle-treated R6/2 mice ([2]; Age Week 4, 10 mg/kg p.o.): ANOVA: p=0.878
Body Weight: p vs Vehicle-treated R6/2 mice ([2]; Age Week 4, 30 mg/kg p.o.): ANOVA: p=0.878
Body Weight: p vs Vehicle-treated R6/2 mice ([2]; Age Week 5, 10 mg/kg p.o.): ANOVA: p=0.762
Body Weight: p vs Vehicle-treated R6/2 mice ([2]; Age Week 5, 30 mg/kg p.o.): ANOVA: p=0.762
Body Weight: p vs Vehicle-treated R6/2 mice ([2]; Age Week 6, 10 mg/kg p.o.): ANOVA: p=0.934
Body Weight: p vs Vehicle-treated R6/2 mice ([2]; Age Week 6, 30 mg/kg p.o.): ANOVA: p=0.934
Body Weight: p vs Vehicle-treated R6/2 mice ([2]; Age Week 7, 10 mg/kg p.o.): ANOVA: p=0.766
Body Weight: p vs Vehicle-treated R6/2 mice ([2]; Age Week 7, 30 mg/kg p.o.): ANOVA: p=0.766
Body Weight: p vs Vehicle-treated R6/2 mice ([2]; Age Week 8, 10 mg/kg p.o.): ANOVA: p=0.926
Body Weight: p vs Vehicle-treated R6/2 mice ([2]; Age Week 8, 30 mg/kg p.o.): ANOVA: p=0.926
Body Weight: p vs Vehicle-treated R6/2 mice ([2]; Age Week 9, 10 mg/kg p.o.): ANOVA: p=0.886
Body Weight: p vs Vehicle-treated R6/2 mice ([2]; Age Week 9, 30 mg/kg p.o.): ANOVA: p=0.886
Body Weight: p vs Vehicle-treated R6/2 mice ([2]; Age Week 10, 10 mg/kg p.o.): ANOVA: p=0.969
Body Weight: p vs Vehicle-treated R6/2 mice ([2]; Age Week 10, 30 mg/kg p.o.): ANOVA: p=0.969
Body Weight: p vs Vehicle-treated R6/2 mice ([2]; Age Week 11, 10 mg/kg p.o.): ANOVA: p=0.891
Body Weight: p vs Vehicle-treated R6/2 mice ([2]; Age Week 11, 30 mg/kg p.o.): ANOVA: p=0.891
Body Weight: p vs Vehicle-treated R6/2 mice ([2]; Age Week 12, 10 mg/kg p.o.): ANOVA: p=0.774
Body Weight: p vs Vehicle-treated R6/2 mice ([2]; Age Week 12, 30 mg/kg p.o.): ANOVA: p=0.774
Body Weight: p vs Vehicle-treated R6/2 mice ([2]; Age Week 13, 10 mg/kg p.o.): ANOVA: p=0.855
Body Weight: p vs Vehicle-treated R6/2 mice ([2]; Age Week 13, 30 mg/kg p.o.): ANOVA: p=0.855
Body Weight: p vs Vehicle-treated R6/2 mice ([2]; Age Week 14, 10 mg/kg p.o.): ANOVA: p=0.878
Body Weight: p vs Vehicle-treated R6/2 mice ([2]; Age Week 14, 30 mg/kg p.o.): ANOVA: p=0.878
Body Weight: p vs Vehicle-treated R6/2 mice ([2]; Age Week 15, 10 mg/kg p.o.): ANOVA: p=0.989
Body Weight: p vs Vehicle-treated R6/2 mice ([2]; Age Week 15, 30 mg/kg p.o.): ANOVA: p=0.989
Body Weight: p vs Vehicle-treated R6/2 mice ([2]; Age Week 16, 10 mg/kg p.o.): ANOVA: p=0.651
Body Weight: p vs Vehicle-treated R6/2 mice ([2]; Age Week 16, 30 mg/kg p.o.): ANOVA: p=0.651
Body Weight: p vs Vehicle-treated R6/2 mice ([2]; Age Week 17, 10 mg/kg p.o.): ANOVA: p=0.817
Body Weight: p vs Vehicle-treated R6/2 mice ([2]; Age Week 17, 30 mg/kg p.o.): ANOVA: p=0.817
Body Weight: p vs Vehicle-treated R6/2 mice ([2]; Age Week 18, 10 mg/kg p.o.): ANOVA: p=0.644
Body Weight: p vs Vehicle-treated R6/2 mice ([2]; Age Week 18, 30 mg/kg p.o.): ANOVA: p=0.644
Body Weight: p vs Vehicle-treated R6/2 mice ([2]; Age Week 19, 10 mg/kg p.o.): ANOVA: p=0.975
Body Weight: p vs Vehicle-treated R6/2 mice ([2]; Age Week 19, 30 mg/kg p.o.): ANOVA: p=0.975
Body Weight: p vs Vehicle-treated R6/2 mice ([2]; Age Week 20, 10 mg/kg p.o.): ANOVA: p=0.900
Body Weight: p vs Vehicle-treated R6/2 mice ([2]; Age Week 20, 30 mg/kg p.o.): ANOVA: p=0.900
Body Weight: p vs Vehicle-treated R6/2 mice ([2]; Age Week 21, 10 mg/kg p.o.): ANOVA: p=0.996
Body Weight: p vs Vehicle-treated R6/2 mice ([2]; Age Week 21, 30 mg/kg p.o.): ANOVA: p=0.996
IC50 (PDE1): 0.07 µM
inhibition at 10 µM (PDE1B): 100%
inhibition at 10 µM (PDE2A): 92%
effect on disease progression / endpoints (rotarod, grip strength, open field, survival) (R6/2 mice [3]): no improvement noted in any endpoint; also recorded: no effect in ameliorating disease progression
